Assay [1] deals with TNFα production in LPS-stimulated human monocytes. Nature of the assay: Cot Monocyte TNFα Cell Based Assay. As to conditions: Homo sapiens, Monocyte, read-out: EC50 TNF. Put shortly: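 5,000 cells/well; cmpd 1 h, 37 °C, 0.5% DMSO final; LPS 50 pg/ml, 4 h, 37 °C; media TNFα by HTRF sandwich (cryptate/XL665), RT overnight; % control vs unstimulated/stimulated wells.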
Assay [2] deals with T1, human Cot catalytic domain (30-397 amino acids) (Homo sapiens, UniProt P41279).
T1 construct: Purified recombinant human Cot catalytic domain (30-397 amino acids) was purchased from Cama Biosciences; purchased Cama Biosciences (so in the source)
As to the kind of experiment: High Throughput Cot Biochemical Assay (KinEASE TR-FRET). As to conditions: read-out: IC50 HTRF. Put shortly: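 First, purified human Cot (aa 30-397) at 5 nM phosphorylates an XL665-labeled STK3 peptide (1 μM) at 400 μM ATP, pH 7.0, 0.1% DMSO. Then a europium-conjugated phospho-specific antibody binds the product, giving the TR-FRET signal.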
A general note: Time-resolved FRET reads energy transfer from a long-lived donor to a nearby acceptor.

[3] abbreviates: TNFα in LPS-stimulated human monocytes.
Where [4] appears, read: Cot biochemical HTRF (KinEASE TR-FRET) assay.
The mark [5] stands for this setting: LPS-stimulated human monocytes, TNFα TR-FRET.
The mark [6] stands for this setting: Cot KinEASE TR-FRET, 400 μM ATP.
[7] abbreviates: Cot KinEASE TR-FRET (HTRF) biochemical assay, 400 μM ATP.

The pEC50 is −log10 of the EC50, conventionally taken in molar units. By pIC50 is commonly meant the IC50 on a negative log10 scale, so that one unit is a factor of ten.

pEC50, pIC50: −log10 of the molar value. Like-named read-outs stand apart in the source and are kept apart here.

T1 sequence (P41279 30-397): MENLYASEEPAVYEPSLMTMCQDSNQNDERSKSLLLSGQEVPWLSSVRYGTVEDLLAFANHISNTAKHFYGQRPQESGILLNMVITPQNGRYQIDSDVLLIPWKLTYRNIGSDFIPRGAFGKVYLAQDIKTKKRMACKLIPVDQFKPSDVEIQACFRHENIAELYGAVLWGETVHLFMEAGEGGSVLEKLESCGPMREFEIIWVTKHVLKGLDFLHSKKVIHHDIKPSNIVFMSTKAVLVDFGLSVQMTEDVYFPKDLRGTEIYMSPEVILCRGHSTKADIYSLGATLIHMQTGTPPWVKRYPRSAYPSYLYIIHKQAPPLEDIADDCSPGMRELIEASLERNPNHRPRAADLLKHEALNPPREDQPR

Take `COc1ccc(Nc2c(C#N)cnc3c(Cl)cc(N[C@@H](c4ccccc4)c4cn(C5COC5)nn4)cc23)cn1` [Example 491, (S)-8-chloro-4-((6-methoxypyridin-3-yl)amino)-6-(((1-(oxetan-3-yl)-1H-1,2,3-triazol-4-yl)(phenyl)methyl)amino) quinoline-3-carbonitrile]: the pEC50 in assay [1] (setting [3]) was 5.42. The pIC50 in assay [2] (setting [4]) was 6.91.
On to `CC(C)(C)N1CCC(n2cc([C@@H](Nc3cc(C#N)c4ncc(C#N)c(Nc5ccc(F)c(Cl)c5)c4c3)c3ccc(Cl)cc3)nn2)CC1` [Example 689, (S)-6-(((1-(1-(tert-butyl)piperidin-4-yl)-1H-1,2,3-triazol-4-yl)(4-chlorophenyl)methyl)amino)-4-((3-chloro-4-fluorophenyl)amino)quinoline-3,8-dicarbonitrile], for which the pEC50 in assay [1] (setting [3]) was 6.46. Further, the negative-log IC50 (pIC50) in assay [2] (setting [4]) was 7.96.
Take `CC(C)(C)CNc1c(C#N)cnc2c(C#N)cc(N[C@@H](c3ccc(F)cc3)c3cn(C4(C5CC5)CC4)nn3)cc12` [Example 973, (S)-6-(((1-([1,1'-bi (cyclopropan)]-1-yl)-1H-1,2,3-triazol-4-yl)(4-fluorophenyl)methyl)amino)-4-(neopentylamino) quinoline-3,8-dicarbonitrile]: the pEC50 in assay [1] (setting [5]) was 7.17. The pIC50 in assay [2] (setting [6]) was 8.05.
Taken in the same sequence, the figures for `[2H]c1c([C@@]([2H])(Nc2cc(C#N)c3ncc(C#N)c(NCC(C)(C)C)c3c2)c2c(F)cccc2Cl)nnn1C1(C)CC1` [Example 1048, (S)-6-(((2-chloro-6-fluorophenyl)(1-(1-methylcyclopropyl)-1H-1,2,3-triazol-4-yl-5-d)methyl-d)amino)-4-(neopentylamino)quinoline-3,8-dicarbonitrile] were 6.20 and 7.48.
Taken in the same sequence, the figures for `CC(C)(C)CNc1c(C#N)cnc2c(Cl)cc(N[C@@H](c3ccc(F)cc3)c3cn(C4(C(N)=O)CC4)nn3)cc12` [Example 996, (S)-1-(4-(((8-chloro-3-cyano-4-(neopentylamino)quinolin-6-yl)amino)(4-fluorophenyl)methyl)-1H-1,2,3-triazol-1-yl)cyclopropane-1-carboxamide] were 6.96 and 8.22.
Turning to `[2H][C@](Nc1cc(Cl)c2ncc(C#N)c(N[C@H](CC)c3ccccc3)c2c1)(c1ccc(F)cc1)c1cn(C2(C(F)F)CC2)nn1` [Example 1028, 8-chloro-6-(((S)-(1-(1-(difluoromethyl)cyclopropyl)-1H-1,2,3-triazol-4-yl)(4-fluorophenyl)methyl-d)amino)-4-(((R)-1-phenylpropyl)amino)quinoline-3-carbonitrile], the negative-log EC50 (pEC50) in assay [1] (setting [5]) was 6.59. The pIC50 in assay [2] (setting [6]) is 7.77.
For `COc1c([C@@H](Nc2cc(Cl)c3ncc(C#N)c(NCC(C)(C)C)c3c2)c2ccccc2Cl)nnn1C1(C)CC1` [Example 1170, (S)-8-chloro-6-(((2-chlorophenyl)(5-methoxy-1-(1-methylcyclopropyl)-1H-1,2,3-triazol-4-yl)methyl)amino)-4-(neopentylamino)quinoline-3-carbonitrile], the pEC50 in assay [1] (setting [5]) was no more than 6.00. Also, the pIC50 in assay [2] (setting [6]) is 6.66.
For the compound `CC(C)n1cc([C@@H](Nc2cc(Cl)c3ncc(C#N)c(Nc4ccc(F)c(Cl)c4)c3c2)c2cccc(CO)c2)nn1` [Example 713, (S)-8-chloro-4-((3-chloro-4-fluorophenyl)amino)-6-(((3-(hydroxymethyl)phenyl)(1-isopropyl-1H-1,2,3-triazol-4-yl)methyl)amino)quinoline-3-carbonitrile], the pEC50 in assay [1] (setting [3]) is 6.45. Besides, in assay [2] (setting [4]), the pIC50 was 7.77.
In the same order, the values of `CC(C)(C)C(O)c1cccc([C@H](Nc2cc(Cl)c3ncc(C#N)c(Nc4ccc(F)c(Cl)c4)c3c2)c2cn(C3CCN(C(C)(C)C)CC3)nn2)c1` (stereo partly drawn) [Example 672, 6-(((1S)-(1-(1-(tert-butyl)piperidin-4-yl)-1H-1,2,3-triazol-4-yl)(3-(1-hydroxy-2,2-dimethylpropyl)phenyl)methyl)amino)-8-chloro-4-((3-chloro-4-fluorophenyl)amino)quinoline-3-carbonitrile] are 6.05 and 7.49.
In the case of `[2H][C@@](Nc1cc(Cl)c2ncc(C#N)c(NCC(C)(C)C)c2c1)(c1cn(C2CC2)nn1)c1ccccc1Cl` [Example 343, (S)-8-chloro-6-(((2-chlorophenyl)(1-cyclopropyl-1H-1,2,3-triazol-4-yl)methyl-d)amino)-4-(neopentylamino) quinoline-3-carbonitrile], the pEC50 in assay [1] (setting [3]) is 6.82. In addition, the pIC50 in assay [2] (setting [7]) is 7.89.
`N#Cc1cnc2c(Cl)cc(N[C@@H](c3ccccc3)c3cn(-c4cccnc4)nn3)cc2c1Nc1ccc(F)c(Cl)c1` [Example 721, (S)-8-chloro-4-((3-chloro-4-fluorophenyl)amino)-6-((phenyl (1-(pyridin-3-yl)-1H-1,2,3-triazol-4-yl)methyl)amino)quinoline-3-carbonitrile]: in assay [1] (setting [3]), the pEC50 is 6.33. Moreover, the pIC50 in assay [2] (setting [4]) is 7.68.
In the case of `CC(C)(C)CNc1c(C#N)cnc2c(Cl)cc(N[C@@H](c3ccc(F)cc3)c3cn(C4(c5cccnc5)CC4)nn3)cc12` [Example 997, (S)-8-chloro-6-(((4-fluorophenyl)(1-(1-(pyridin-3-yl)cyclopropyl)-1H-1,2,3-triazol-4-yl)methyl)amino)-4-(neopentylamino) quinoline-3-carbonitrile], the pEC50 in assay [1] (setting [5]) is 7.21. Moreover, in assay [2] (setting [6]), the pIC50 was 7.32.
Taken in the same sequence, the figures for `CC(C)(C)CNc1c(C#N)cnc2c(C#N)cc(N[C@H](c3cn(C4(C(N)=O)CC4)nn3)c3ccccc3Cl)cc12` [Example 957, (S)-1-(4-((2-chlorophenyl)((3,8-dicyano-4-(neopentylamino)quinolin-6-yl)amino)methyl)-1H-1,2,3-triazol-1-yl)cyclopropane-1-carboxamide] were 6.77 and 8.52.
Taken in the same sequence, the figures for `Cc1c(C#N)cccc1[C@H](Nc1cc(C#N)c2ncc(C#N)c(NCC(C)(C)C)c2c1)c1cn(C23CC(C2)C3)nn1` [Example 1156, (S)-6-(((1-(bicyclo[1.1.1]pentan-1-yl)-1H-1,2,3-triazol-4-yl)(3-cyano-2-methylphenyl)methyl)amino)-4-(neopentylamino)quinoline-3,8-dicarbonitrile] were 7.89 and 9.00.
Regarding `CC(C)(C)CNc1c(C#N)cnc2c(Cl)cc(N[C@H](c3cn(C4CC4)nn3)c3ccc(F)cc3Cl)cc12` [Example 207, (S)-8-chloro-6-(((2-chloro-4-fluorophenyl) (1-cyclopropyl-1H-1,2,3-triazol-4-yl)methyl)amino)-4-(neopentylamino) quinoline-3-carbonitrile], the negative logarithm of the EC50 (pEC50) in assay [1] (setting [3]) was 6.52. Besides, the pIC50 in assay [2] (setting [7]) was 7.77.
As to `CC(=O)N(C)c1cccc([C@H](Nc2cc(Cl)c3ncc(C#N)c(Nc4ccc(F)c(Cl)c4)c3c2)c2cn(C3CCN(C(C)(C)C)CC3)nn2)c1` [Example 623, (S)-N-(3-((1-(1-(tert-butyl)piperidin-4-yl)-1H-1,2,3-triazol-4-yl)((8-chloro-4-((3-chloro-4-fluorophenyl)amino)-3-cyanoquinolin-6-yl)amino)methyl)phenyl)-N-methylacetamide], the negative logarithm of the EC50 (pEC50) in assay [1] (setting [3]) is 7.05. Besides, the pIC50 in assay [2] (setting [4]) was 9.00.
Taken in the same sequence, the figures for `C[C@@H](Nc1c(C#N)cnc2c(Cl)cc(N[C@@H](c3ccccc3)c3cn(C4CCN(C(C)(C)C)CC4)nn3)cc12)C(C)(C)C` [Example 485, 6-(((S)-(1-(1-(tert-butyl)piperidin-4-yl)-1H-1,2,3-triazol-4-yl)(phenyl)methyl)amino)-8-chloro-4-(((R)-3,3-dimethylbutan-2-yl)amino) quinoline-3-carbonitrile] were 5.14 and 6.51.
As for `[2H][C@](Nc1cc(Cl)c2ncc(C#N)c(NCC(C)(C)C)c2c1)(c1cn(CC2CCO2)nn1)c1ccccc1Cl` (stereo partly drawn) [Example 90, 8-chloro-6-(((2-chlorophenyl) (1-(oxetan-2-ylmethyl)-1H-1,2,3-triazol-4-yl)methyl-d)amino)-4-(neopentylamino) quinoline-3-carbonitrile], the pEC50 in assay [1] (setting [3]) is 6.54. For the same compound, the pIC50 in assay [2] (setting [7]) was 7.59.
Regarding `[2H][C@@](Nc1cc(C(C)=O)c2ncc(C#N)c(N[C@H](CCC#N)c3ccccc3)c2c1)(c1cn(C2CC2)nn1)c1ccccc1Cl` [Example 939, 8-acetyl-6-(((S)-(2-chlorophenyl)(1-cyclopropyl-1H-1,2,3-triazol-4-yl)methyl-d)amino)-4-(((R)-3-cyano-1-phenylpropyl)amino) quinoline-3-carbonitrile], in assay [1] (setting [5]), the pEC50 is 7.04. The pIC50 in assay [2] (setting [6]) is 8.40.
`[2H][C@](Nc1cc(Cl)c2ncc(C#N)c(NN(CC)c3ccccc3)c2c1)(c1ccc(F)cc1)c1cn(C2CC2)nn1` [Example 222, (S)-8-chloro-6-(((1-cyclopropyl-1H-1,2,3-triazol-4-yl)(4-fluorophenyl)methyl-d)amino)-4-(2-ethyl-2-phenylhydrazinyl)quinoline-3-carbonitrile]: the pEC50 in assay [1] (setting [3]) is less than 5.00. The pIC50 in assay [2] (setting [7]) was 5.09.
`N#Cc1cnc2c(Cl)cc(N[C@@H](c3ccc(F)cc3)c3c[nH]nn3)cc2c1Nc1cnc(F)c(F)c1` [Example 513, (S)-8-chloro-4-((5,6-difluoropyridin-3-yl)amino)-6-(((4-fluorophenyl)(1H-1,2,3-triazol-4-yl)methyl)amino) quinoline-3-carbonitrile]: the pEC50 in assay [1] (setting [3]) was 5.87. In addition, in assay [2] (setting [4]), the pIC50 was 7.66.

(Values after patent publication US10316017B2, “COT modulators and methods of use thereof” (Gilead Sciences, Inc., priority 2015, dated 2019).)
